Consider 1 compound from patent US12129234B1, “Crystalline salts of N-ethyl-(5-fluoro-1H-indol-3-yl)-N-methylethan-1-amine” (Gilgamesh Pharmaceuticals, Inc., priority 2023, dated 2024).

Data set [1] is described as follows: Stability of the solid upon drying under vacuum. It counts as physicochemical. The following applies: solids collected by filtration and dried under vacuum. The procedure:
(§1) Alternatively, after the oil is formed from the evaporation of the ethanol, acetone is added to the oil at a temperature effective to solubilize the oil, ranging from about 30° C. to about 60° C., such as 45° C., and then the resulting mixture is cooled to room temperature. A non-polar antisolvent, such as n-heptane is added to the solution with stirring to form a slurry comprising N-ethyl-2-(5-fluoro-1H-indol-3-yl)-N-methylethan-1-amine monosuccinate, from which a crystalline solid comprising N-ethyl-2-(5-fluoro-1H-indol-3-yl)-N-methylethan-1-amine monosuccinate is crystallized, for example, by seeding, scratching, or aging. The solids are collected by filtration and dried under vacuum.

The nature of data set [2]: Overnight humidity exposure at 30° C./90% relative humidity. It counts as physicochemical. The following applies: 30° C./90% relative humidity (RH). The procedure: as §1

Consider `CCN(C)CCc1c[nH]c2ccc(F)cc12.O=C(O)CCC(=O)O` [N-ethyl-2-(5-fluoro-1H-indol-3-yl)-N-methylethan-1-amine monosuccinate], for which the stability upon drying result in data set [1] is recorded as “stable upon drying”. Also, the “behaviour after humidity exposure (deliquescence)” value in data set [2] is reported as “deliquesces”.
